Results: PMC12040169 (PLOS Biology, 2025)
Values joined by “and” are separate entries in the source; they are usually repeats but may differ in a detail not shown here. Equal entries are not always repeated.

Assays:
[1] = in vitro; details: human, hela cells, % viability
[2] = tested on: HeLa; details: bulk resorufin, single well, 28.5 h, 10 µM, Bulk resorufin fluorescence

Row | Structure (SMILES) | viability at 28.5 h, 10 µM [1] | % viability [2]
1 | CCOC(=O)c1c(NS(=O)(=O)c2ccc(NC(C)=O)cc2)sc2c1CCCC2 [CBK004658] | 90.3% | 99.8%
2 | Nc1nc(Nc2ccccc2)nc(C(F)(F)F)n1 [CBK004712] | 89.8% | 72%
3 | O=[N+]([O-])c1c(-c2cn[nH]c2)n[nH]c1-c1cn[nH]c1 [CBK008388] | 86.2% | 93.4%
4 | CC(=O)NC[C@H]1CN(c2ccc(-c3cc4ccccc4n3C(=O)OC(C)(C)C)c(F)c2)C(=O)O1 [CBK011849] | 98.1% | 82.6%
5 | O=C(O)Cc1cc(C(=O)/C=C/c2c(Cl)cccc2Cl)ccc1O [CBK013106] | 99% | 100%
6 | S=c1[nH]nc(-c2sc3ccccc3c2Cl)[nH]1 [CBK013698] | 96.3% | 90.2%
7 | CC(C)c1n[nH]c2c1/C(=N\N)c1ccccc1-2 [CBK017384] | 85.4% | 73.8%
8 | CS(=O)(=O)Nc1ccc2[nH]c(=O)c(C(=O)NCc3ccc(Cl)cc3)cc2c1 [CBK017560] | 97.9% | 102%
9 | COc1ccc(-n2ccc(=O)c(Cc3c(Cl)cccc3Cl)c2C)cc1 [CBK019186] | 89.2% | 106%
10 | CC1=C/C(=C(\C#N)C(N)=O)NC(c2ccccc2O)=N1 [CBK019764] | 111% | 95.3%
11 | Cc1nc2ccccc2n1C(=O)c1sc2ccccc2c1Cl [CBK020557] | 106% | 115%
12 | O=C(O)/C(SC1=NC2=Nc3ccccc3C2N=N1)=C1/C(=O)Nc2ccccc21 (stereo not shown) [CBK021943] | 100% | 96%
13 | S=C(Nc1ccc(C2=NCCO2)cc1)Nc1ccc(Cl)c(Cl)c1 [CBK022344] | 90.6% | 106%
14 | CNC1=NC2CCCCC2O1 (stereo not shown) [CBK023075F] | 117% | 111%
15 | O=C(O)c1c(NS(=O)(=O)c2ccc(Oc3ccccc3)cc2)sc2c1CCCC2 [CBK024820] | 101% | 106%
16 | CC(=O)NC(NS(=O)(=O)c1ccccc1)(C(F)(F)F)C(F)(F)F [CBK025820] | 98.4% | 92.5%
17 | O=C1CSC(Nc2ccc(Br)cc2)=N1 [CBK026413] | 79.9% | 88.5%
18 | O=C(Nc1cncc(OC2CCNCC2)n1)C1CCC1 [CBK026728T] | 81.9% | 94%
19 | Cc1sc(NC(=O)C(F)(F)F)c(C(N)=O)c1C [CBK027775] | 99.4% | 94.1%
20 | Cc1c(NC(=O)OC(C)C)sc(=S)n1C [CBK028089] | 88.9% | 83.7%
21 | O=C(CNS(=O)(=O)c1ccc(Br)cc1)N1CCOCC1 [CBK034469] | 96% | 87%
22 | CCOc1ccsc1C(=O)NCc1ccc(OC2CCNCC2)cc1 [CBK036355T] | 106% | 114%
23 | COc1ccc([C@@]23CC[C@@H](CNS(=O)(=O)c4cccc(Cl)c4)C[C@@H]2N(C)CC3)cc1OC [CBK042202T] | 99.8% | 91.5%
24 | CCOC(=O)N1CCC(NS(=O)(=O)c2ccc3ccccc3c2)CC1 [CBK045452] | 92% | 93.1% and 96.6%
25 | CCOC(=O)N1CCC(NS(=O)(=O)c2ccc(Oc3ccccc3)cc2)CC1 [CBK045469] | 98.4% | 97.7%

Row | Structure (SMILES) | viability at 28.5 h, 10 µM [1] | % viability [2]
26 | O=C(Nc1ccccc1OC1CCNCC1)C1CCC1 [CBK045901T] | 109% | 97.8%
27 | O=C(Nc1ccccc1OC1CCNCC1)C1CCCO1 (stereo not shown) [CBK045905T] | 91.1% | 110%
28 | CC(=O)Nc1ccc(S(=O)(=O)Nc2c(C(=O)N3CCN(C)CC3)[nH]c3ccccc23)cc1 [CBK050044] | 94.9% | 93.9%
29 | Cc1nn(C)c(N2CCNCC2)c1NC(=O)c1ccoc1 [CBK050302T] | 99.7% | 108%
30 | CN1CCN(S(=O)(=O)c2ccc(C(=O)O)cc2)CC1 [CBK062446] | 90.4% | 109% and 101%
31 | Cc1c(S(=O)(=O)NCCN2CCNC2=O)cnn1-c1ccccc1 [CBK062603] | 117% | 99.3%
32 | CCCNC(=O)[C@@H]1Cc2c([nH]c3ccccc23)[C@]2(CCN(CCOc3ccccc3)C2)N1 [CBK063172T] | 101% | 86%
33 | Cc1nn(C)c(Cl)c1S(=O)(=O)Nc1nc(=O)[nH]cc1F [CBK067568] | 99.1% | 97.9% and 87.2%
34 | Cc1csc(NC(=O)c2ccc(S(=O)(=O)N3CCCCC3)cc2)n1 [CBK069735] | 102% | 103%
35 | COc1cccc(NC(=O)c2sc3ncn(C)c(=O)c3c2C)c1 [CBK071807] | 99.2% | 82.5%
36 | COc1ccc(C(=O)Nc2nnc(CC(=O)N/N=C/c3ccccc3OC)s2)cc1 [CBK072076] | 91.8% | 101%
37 | COc1nccnc1OC1CCNCC1 [CBK073919T] | 100% | 86.5% and 97.3%
38 | CCCc1[nH]nc(O)c1CCc1ccc(Cl)cc1Cl [CBK075082] | 106% | 109%
39 | CC(=O)n1cc(C2C(=O)NN=C2C)c2ccccc21 (stereo not shown) [CBK083563] | 102% | 82.3%
40 | Nc1c(-c2cccc3cccnc23)cnc2ncccc12 [CBK083682] | 108% | 88.7%
41 | Clc1ccc(COc2ccnc(N3CCCN(CCN4CCOCC4)CC3)n2)cc1Cl [CBK083957] | 97.8% | 98.9%
42 | Clc1ccc(COc2cncc(OC3CCN(CCN4CCOCC4)C3)n2)cc1Cl (stereo not shown) [CBK084433] | 87% | 100%
43 | CS(=O)(=O)Nc1cc2cccnc2nc1-c1ccc2c(c1)CCO2 [CBK085690] | 104% | 102%
44 | COc1cc(F)ccc1-c1nc(NS(C)(=O)=O)cc2ccccc12 [CBK085751] | 97.2% | 105%
45 | CC(=O)Nc1ccc(NS(=O)(=O)c2ccc(O)c(C(=O)O)c2)cc1 [CBK092150] | 115% | 96.9%
46 | COc1cc(-c2ccc(OC3CCNCC3)cc2)cc(OC)c1OC [CBK093682] | 99% | 102%
47 | CC(C)(C)c1cc(C(=O)NCCN2CCCC2)n(Cc2ccc(Cl)cc2Cl)n1 [CBK107290] | 115% | 110%
48 | O=C(CSC1=NCCS1)Nc1ccnc2ccccc12 [CBK112077] | 101% | 98.9%
49 | CN(C)S(=O)(=O)c1cc(C(=O)O)c(Cl)cc1Cl [CBK113173] | 101% | 94%
50 | CCOC(=O)c1sc2nccc(Nc3ccccc3)c2c1N [CBK115365] | 90.8% | 91.8%

Row | Structure (SMILES) | viability at 28.5 h, 10 µM [1] | % viability [2]
51 | OC1CCn2c1nc1cc(C(F)(F)F)ccc12 (stereo not shown) [CBK115448] | 80.4% | 70.8%
52 | COc1ccc(C2N(CC(N)=O)CCOC23CCN(C(=O)c2ccc4ccccc4c2)CC3)cc1 (stereo not shown) [CBK115613] | 96.9% | 101%
53 | FC(F)(F)c1ccnc(OCCCc2ccncc2)c1 [CBK115786] | 109% | 101%
54 | CCCCOC(=O)c1ccc(NC(=O)Nc2ccc3ccc(Cl)nc3n2)cc1 [CBK115932] | 93.8% | 97.1%
55 | COc1ccc2[nH]cc(CCNC(=O)Cc3c[nH]c4ccc(O)cc34)c2c1 [CBK116216] | 98.6% | 84.5%
56 | Oc1ccc(-c2cncc(-c3ccc(CN4CCOCC4)cc3)n2)cc1 [CBK123787] | 104% | 108%
57 | CC(C)c1ccc(CN2CCC(Cc3ccccc3)CC2)cc1 [CBK126378] | 99.1% | 109%
58 | O=C(O)CCS(=O)(=O)c1cccc2cccnc12 [CBK131911] | 102% | 92.5%
59 | CCN(Cc1ccccc1)C(=O)NCC1COc2ccccc2O1 (stereo not shown) [CBK155213] | 103% | 89.3%
60 | CCN(CC)c1ccc(NC(=O)N2CCN(Cc3ccccc3)CC2)cc1 [CBK155645] | 99.7% | 90.4%
61 | CC(=O)NCc1cccc(-c2cc(C(=O)Nc3ccc4c(c3)OCCO4)cnc2N2CCOCC2)c1 [CBK159355C] | 90.1% | 102%
62 | COc1ccc(C(=O)Nc2ccc(OCC(=O)O)cc2)cc1 [CBK260894] | 91.4% | 85.6%
63 | COc1ccc(C(CC(=O)O)NC(=O)c2ccccc2)cc1 (stereo not shown) [CBK261121] | 89.3% | 93.9%
64 | O=C(O)CCNc1c(C(=O)O)cnc2ccccc12 [CBK261139] | 83.3% | 89%
65 | O=C(CN1C(=O)[C@H]2CCCN2C(=O)c2ccccc21)NC1CC1 [CBK282436] |  | 122% and 91.3%
66 | CC(C)NC(=O)CN1C(=O)[C@H]2CCCN2C(=O)c2ccccc21 [CBK282437] |  | 112% and 88.6%
67 | C[C@@H]1CN(Cc2ccco2)CCN1C(=O)Cc1ccccc1F [CBK284257] |  | 83.4% and 106%
68 | O=C(NC[C@H]1CCCN(C(=O)c2ccccn2)C1)c1cccs1 [CBK284262] |  | 105% and 83.9%
69 | O=C(NC1CC1)[C@@H]1C=CCN1C(=O)c1ccc(F)cc1F [CBK284279] |  | 80.5% and 104%
70 | Cc1cc(NC(=O)c2ccc(Br)o2)nc2c1c(=O)oc1ccccc12 [CBK287440] |  | 85.8% and 119%
71 | COc1ccc(C(=O)Nc2nc3nc(C)cc(C)c3s2)cc1 [CBK287755] |  | 105% and 83%
72 | Oc1ccc(Nc2ncnc3c2oc2ccccc23)cc1 [CBK287967] |  | 92.3% and 113%
73 | O=c1[nH][nH]c2c1cnc1c(C(F)(F)F)cccc12 [CBK287996] |  | 113% and 84.4%
74 | O=c1[nH]nc(COc2ccc(Br)cc2)o1 [CBK288526] |  | 110% and 86.7%
75 | Cc1c(C(=O)O)sc2nc(SCC(=O)NCc3ccccc3)[nH]c(=O)c12 [CBK301214K] |  | 107%
